From patent US20220143198A1, “COMPOSITIONS AND METHODS RELATED TO TETHERED KETHOXAL DERIVATIVES” (The University of Chicago, priority 2019, published 2022)

How the values were obtained:
[1] = test system: 12-mer synthetic RNA oligo containing four guanine bases; experiment: Labeling activity of phenol-kethoxal and diphenol-kethoxal on 12-mer synthetic RNA oligo (MALDI-TOF); type: biochemical; conditions: 10 min incubation
Description: To test the labeling activity of phenol-kethoxal and diphenol-kethoxal, the two compounds were incubated with a 12-mer synthetic RNA oligo containing four guanine bases, respectively. After 10 min, the reactions were cleaned-up and analyzed by MALDI-TOF.

Cells = experiment: Cell permeability and radical-mediated biotinylation of RNA from treated cells (dot blot); type: cell-based; conditions: cells treated 10 min, versus control sample
Description: A second set of test were performed to test cell permeability of phenol-kethoxal and diphenol-kethoxal and if the labeling enhances radical-mediated biotinylation. Cells were treated with phenol-kethoxal and diphenol-kethoxal for 10 min, respectively, and RNA isolated from treated cells. An in vitro biotinylation reaction was performed by mixing these kethoxal derivative-labeled RNAs with biotin-phenol, horseradish peroxidase (HRP), and H2O2, see FIG. 4. HRP is an enzyme that mimics APEX with higher radical generation activity in vitro. The biotinylated RNAs were purified and subjected to dot blot analysis.

guanosine = experiment: Reversibility of kethoxal derivatives by adjusting pH (kethoxal-guanosine adduct dissociation); type: physicochemical
[2] = pH = 5.8, 4 h after adjusting from pH 10.1, 1:1 ratio
[3] = pH = 5.8, 24 h after adjusting from pH 10.1, 1:1 ratio
[4] = pH = 10.1, 10 min, kethoxal derivative and guanosine 1:1
[5] = pH = 5.8, 10 min after adjusting from pH 10.1, 1:1 ratio

CC(OCCn1cc(-c2ccc(O)c(O)c2)nn1)C(=O)C=O (stereo not drawn) [diphenol-kethoxal]
Labeling activity on RNA oligo [1]: label the oligo efficiently, with all four guanines on all oligo molecules modified
Biotin signal of RNA from treated cells after HRP/biotin-phenol/H2O2 biotinylation (Cells): stronger biotin signals compared with the control sample

[N-]=[N+]=NCCCC(=O)C=O [drawing 70]
Conversion of guanosine (guanosine; [2]): 19.0%
Conversion of guanosine (guanosine; [3]): 14.7%
Conversion of guanosine (guanosine; [4]): 30.2%

CC(C(=O)C=O)N(C)C(=O)CN=[N+]=[N-] (stereo not drawn) [drawing 71]
Conversion of guanosine (guanosine; [2]): 31.9%
Conversion of guanosine (guanosine; [3]): 26.5%
Conversion of guanosine (guanosine; [4]): 35.6%

[N-]=[N+]=NCCOCCC(=O)C=O [drawing 72]
Conversion of guanosine (guanosine; [2]): 16.6%
Conversion of guanosine (guanosine; [4]): 19.7%

O=CC(=O)c1ccccc1 [drawing 73]
Conversion of guanosine (guanosine; [5]): 12.2%
Conversion of guanosine (guanosine; [2]): 10.7%
Conversion of guanosine (guanosine; [3]): 12.7%
Conversion of guanosine (guanosine; [4]): 28.3%

[N-]=[N+]=NCCOC(F)C(=O)C=O (stereo not drawn) [drawing 74]
Conversion of guanosine (guanosine; [5]): 50.1%
Conversion of guanosine (guanosine; [2]): 57.1%
Conversion of guanosine (guanosine; [3]): 58.2%
Conversion of guanosine (guanosine; [4]): 46.2%

[N-]=[N+]=NCCOC(F)(F)C(=O)C=O [drawing 75]
Conversion of guanosine (guanosine; [5]): 49.2%
Conversion of guanosine (guanosine; [2]): 55.1%
Conversion of guanosine (guanosine; [3]): 54.7%
Conversion of guanosine (guanosine; [4]): 41.5%

CC(OCCn1cc(-c2ccc(O)cc2)nn1)C(=O)C=O (stereo not drawn) [phenol-kethoxal]
Labeling activity on RNA oligo [1]: label the oligo efficiently, with all four guanines on all oligo molecules modified
Biotin signal of RNA from treated cells after HRP/biotin-phenol/H2O2 biotinylation (Cells): stronger biotin signals compared with the control sample
